# Structures can show the parent of a compound that is named as a salt.
# Columns and labels:
# [1] = test system: depressant effects induced by tetrabenazine; assay: Antitetrabenazine test in mice (blocking of tetrabenazine-induced depressant effects); assay type: in vivo; details: Mus musculus, ip, compound intraperitoneally, tetrabenazine intravenously
# From the text: Compounds preferred for their antidepressant activity have the formula: [drawing 4] Illustrative of the antidepressant activity of compounds of Formula Ia are the effective dosages determined by the foregoing anti-tetrabenazine test.
# [2] = test system: cardiac arrhythmia; assay: Counteracting of ouabain-induced cardiac arrhythmia in anesthetized dogs; assay type: in vivo, adult mongrel dogs
# Experimental: The procedure is carried out under barbiturate anesthesia using adult mongrel dogs of either sex weighing from 8 to 14 kg. A Grass Model 7 polygraph was used for recording femoral arterial blood pressure (Statham P23AC Transducer) and the electrocardiogram (Grass 7P4 Preamplifier). Ouabian was given intravenously in an initial dose of 40γ/kg in a second dose of 20γ/kg, given 30 minutes after the first dose, and in subsequent doses of 10γ/kg which were repeated at 15 minute intervals as required for producing cardiac arrhythmias that persisted for at least 15 minutes. When the arrhythmias were established the test compounds were administered by infusion (Harvard Model 942 Infusion Pump) into a femoral vein at a rate of 1 mg/kg/min. Concentrations of compounds were adjusted according to the weight of the dog to allow a volume infusion of 1 ml/min. Compounds that are considered to be active as antiarrhythmic agents cause reversion to sinus rhythm which is maintained for at least 60 minutes.
Compound,ED50 [1] [mg/kg],"minimal effective dose ([2]; Canis lupus familiaris, iv, 1 h, barbiturate anesthesia, ouabain arrhythmia, infusion into femoral vein 1 mg/kg/min, reversion to sinus rhythm maintained at least 60 minutes, read-out: antiarrhythmic activity, minimum effective dose) [mg/kg]",antiarrhythmic activity (in words) ([2]; ouabain-induced arrhythmia)
"CN1C[C@@H](O)[C@H](Oc2ccccc2)C1 (relative stereo) [Example 3, Trans-1-methyl-4-phenoxy-3-pyrrolidinol]",3.7,–,–
"CCN1C[C@@H](O)[C@H](Oc2ccccc2)C1 (relative stereo) [Example 46, Trans-1-ethyl-4-phenoxy-3-pyrrolidinol Oxalate Hydrate (4:1)]",3.5,–,–
"CCN1C[C@@H](O)[C@H](Oc2ccccc2Cl)C1 (relative stereo) [Example 48, Trans-4-(2-chlorophenoxy)-1-ethyl-3-pyrrolidinol Hydrochloride]",2.8,–,–
"CCN1C[C@@H](O)[C@H](Oc2c(Cl)cccc2Cl)C1 (relative stereo) [Example 49, Trans-4-(2,6-dichlorophenoxy)-1-ethyl-3-pyrrolidinol Hydrochloride]",4.8,–,–
"CCN1C[C@@H](O)[C@H](Oc2cccc3ccccc23)C1 (relative stereo) [Example 55, Trans-1-ethyl-4-(1-naphthalenyloxy)-3-pyrrolidinol Hydrochloride]",–,10.7,exceptional antharrhythmic activity

# Source: patent US4452809A, “Trans-4-(2-chlorophenoxy)-1-ethyl-3-pyrrolidinol and anti-depressant use thereof” (A. H. Robins Company, Inc., priority 1983, dated 1984)
